Measurements reported in BigSolDB 2.1.

CSCC1CN(/N=C/c2ccc([N+](=O)[O-])o2)C(=O)O1 (configuration not stated)
solubility (mole fraction)
Conditions	293.15 K	298.15 K	303.15 K	308.15 K	313.15 K	318.15 K	323.15 K	328.15 K	333.15 K
in DMF	0.012	0.015	0.0186	0.0229	0.0279	0.0338	0.0405	0.0483	0.0571
in DMSO	0.0172	0.021	0.0255	0.0307	0.0367	0.0435	0.0511	0.0596	0.069
in THF	0.000618	0.000801	0.00103	0.00131	0.00166	0.00209	0.0026	0.00322	0.00397
in acetic acid	0.000206	0.000275	0.000364	0.000479	0.000624	0.000808	0.00104	0.00133	0.00168
in acetone	0.00109	0.0014	0.00178	0.00225	0.00281	0.0035	0.00432	0.0053	–
in acetonitrile	0.00235	0.00296	0.00369	0.00457	0.00562	0.00687	0.00835	0.0101	0.0121
in dichloromethane	0.00151	0.00192	0.00242	0.00303	–	–	–	–	–
in ethanol	1.98e-05	2.7e-05	3.65e-05	4.89e-05	6.49e-05	8.54e-05	0.000111	0.000144	0.000185
in ethyl acetate	0.000224	0.000297	0.000389	0.000505	0.000651	0.000832	0.00106	0.00133	0.00167
in isopropanol	1.45e-05	2e-05	2.73e-05	3.69e-05	4.94e-05	6.56e-05	8.63e-05	0.000113	0.000146
in methanol	3.84e-05	5.31e-05	7.26e-05	9.85e-05	0.000132	0.000177	0.000234	0.000308	0.000403
in water	1.53e-05	2.06e-05	2.75e-05	3.63e-05	4.74e-05	6.16e-05	7.93e-05	0.000101	0.000129
